# Measurements as given in patent US20250129070A1, “BIFUNCTIONAL ANDROGEN RECEPTOR COMPOUNDS” (priority 2023, published 2025).
# Columns and labels:
# VCaP cells = assay: VCaP growth inhibition assay; assay type: cell-based; settings: 30 pM R1881, 9 days, CTG
# In short: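 Growth read by CTG luminescence after 9-day exposure to compound (final 100 nM–10 fM, 1:5 steps) plus 30 pM R1881, in phenol red-free DMEM with 5% CSS. Cells pre-incubated 72 h before dosing; IC50 by nonlinear 4-parameter regression.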
# AR / CBP ternary complex = assay: Ternary complex formation assay (sandwich ELISA, AR capture / CBP detection) in VCaP cell lysates; assay type: cell-based; settings: 1.5 hours treatment, sandwich ELISA (AR capture, CBP or p300 detection)
# In short: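 Anti-AR (AR 441)-coated plates capture AR from lysates of VCaP cells grown ≥3 days at 50K/well in 5% charcoal-stripped FBS, dosed with bifunctional for 1.5 h and lysed 30 min at 4 °C. Co-captured CBP/p300 is probed with rabbit mAb and HRP anti-rabbit, then QuantaRed fluorescence (570/585) is read at 0, 5 and 15 min.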
Compound,IC50 (VCaP cells) [nM],EC50 (AR / CBP ternary complex) [nM]
"COc1cc(OC2C(C)(C)C(NC(=O)c3ccc(N4CCC5(CC4)CC4(CC(n6nc(N7CCCc8cc(-c9cnn(C)c9)c(C(F)F)cc87)c7c6CCN(C(C)=O)C7)C4)C5)cc3)C2(C)C)ccc1C#N (stereo not drawn) [Compound 286, 4-[2-[5-acetyl-3-[7-(difluoromethyl)-6-(1-methylpyrazol-4-yl)-3,4-dihydro-2H-quinolin-1-yl]-6,7-dihydro-4H-pyrazolo[4,3-c]pyridin-1-yl]-9-azadispiro[3.1.5^6.1^4]dodecan-9-yl]-N-[3-(4-cyano-3-methoxy-phenoxy)-2,2,4,4-tetramethyl-cyclobutyl]benzamide]",1 to 100,> 100
"COc1cc(OC2C(C)(C)C(NC(=O)c3ccc(N4CCC(C(=O)N5CCC(n6nc(-c7cccc8cc(C9CC9)ncc78)c7c6CCN(C(C)=O)C7)CC5)CC4)cc3)C2(C)C)ccc1C#N (stereo not drawn) [Compound 256, 4-[4-[4-[5-acetyl-3-(3-cyclopropyl-8-isoquinolyl)-6,7-dihydro-4H-pyrazolo[4,3-c]pyridin-1-yl]piperidine-1-carbonyl]-1-piperidyl]-N-[3-(4-cyano-3-methoxy-phenoxy)-2,2,4,4-tetramethyl-cyclobutyl]benzamide]",0.1 to 1,< 1
"COc1cc(OC2C(C)(C)C(NC(=O)c3ccc(N4CC5CC4CC5CN4CCC(n5nc(N6CCCc7cc(-c8cnn(C)c8)c(C(F)F)cc76)c6c5CCN(C(C)=O)C6)CC4)cc3)C2(C)C)ccc1C#N (stereo not drawn) [Compound 255, 4-[5-[[4-[5-acetyl-3-[7-(difluoromethyl)-6-(1-methylpyrazol-4-yl)-3,4-dihydro-2H-quinolin-1-yl]-6,7-dihydro-4H-pyrazolo[4,3-c]pyridin-1-yl]-1-piperidyl]methyl]-2-azabicyclo[2.2.1]heptan-2-yl]-N-[3-(4-cyano-3-methoxy-phenoxy)-2,2,4,4-tetramethyl-cyclobutyl]benzamide]",0.1 to 1,< 1
"CC(=O)N1CCc2c(c(N3CCCc4cc(-c5cnn(C)c5)c(C(F)F)cc43)nn2CCCOc2ncc(C(=O)NC3C(C)(C)C(Oc4ccc(C#N)c(Cl)c4)C3(C)C)cn2)C1 (stereo not drawn) [Compound 43, 2-[3-[5-acetyl-3-[7-(difluoromethyl)-6-(1-methylpyrazol-4-yl)-3,4-dihydro-2H-quinolin-1-yl]-6,7-dihydro-4H-pyrazolo[4,3-c]pyridin-1-yl]propoxy]-N-[3-(3-chloro-4-cyano-phenoxy)-2,2,4,4-tetramethyl-cyclobutyl]pyrimidine-5-carboxamide]",> 100,> 100
"CC(=O)N1CCc2c(c(N3CCCc4cc(-c5cnn(C)c5)c(C(F)F)cc43)nn2C2CCN(C3CCN(c4ncc(C(=O)NC5C(C)(C)C(Oc6ccc(C#N)c(Cl)c6)C5(C)C)cn4)CC3)C2)C1 (stereo not drawn) [Compound 12, 2-[4-[3-[5-acetyl-3-[7-(difluoromethyl)-6-(1-methylpyrazol-4-yl)-3,4-dihydro-2H-quinolin-1-yl]-6,7-dihydro-4H-pyrazolo[4,3-c]pyridin-1-yl]pyrrolidin-1-yl]-1-piperidyl]-N-[3-(3-chloro-4-cyano-phenoxy)-2,2,4,4-tetramethyl-cyclobutyl]pyrimidine-5-carboxamide]",1 to 100,1 to 10
"CC(=O)N1CCc2c(c(-c3cccc4cc(-c5ccc(CCC6CC7(C6)CN(c6ncc(C(=O)NC8C(C)(C)C(Oc9ccc(C#N)c(Cl)c9)C8(C)C)cn6)C7)nc5)ncc34)nn2C)C1 (stereo not drawn) [Compound 229, 2-[6-[2-[5-[8-(5-acetyl-1-methyl-6,7-dihydro-4H-pyrazolo[4,3-c]pyridin-3-yl)-3-isoquinolyl]-2-pyridyl]ethyl]-2-azaspiro[3.3]heptan-2-yl]-N-[3-(3-chloro-4-cyano-phenoxy)-2,2,4,4-tetramethyl-cyclobutyl]pyrimidine-5-carboxamide]",0.1 to 1,1 to 10
"CC(=O)N1CCc2c(c(N3CCCc4cc(-c5cnn(C)c5)c(C(F)F)cc43)nn2C2CCN(C(=O)C3CCN(c4ccc5c(n4)CN(C4C(C)(C)C(Oc6ccc(C#N)c(Cl)c6)C4(C)C)C5=O)CC3)CC2)C1 (stereo not drawn) [Compound 299, 4-[3-[2-[4-[4-[5-acetyl-3-[7-(difluoromethyl)-6-(1-methylpyrazol-4-yl)-3,4-dihydro-2H-quinolin-1-yl]-6,7-dihydro-4H-pyrazolo[4,3-c]pyridin-1-yl]piperidine-1-carbonyl]-1-piperidyl]-5-oxo-7H-pyrrolo[3,4-b]pyridin-6-yl]-2,2,4,4-tetramethyl-cyclobutoxy]-2-chloro-benzonitrile]",0.1 to 1,< 1

# Now from value to molecule:
IC50 (VCaP cells) [nM],EC50 (AR / CBP ternary complex) [nM],Compound
≤ 0.1,< 1,"CC(=O)N1CCc2c(c(-c3cccc4cc(-c5ccc(C(=O)NCCOCc6ncc(C(=O)NC7C(C)(C)C(Oc8ccc(C#N)c(Cl)c8)C7(C)C)cn6)nc5)ncc34)nn2C2CCOCC2)C1 (stereo not drawn) [Compound 76, 2-[2-[[5-[8-(5-acetyl-1-tetrahydropyran-4-yl-6,7-dihydro-4H-pyrazolo[4,3-c]pyridin-3-yl)-3-isoquinolyl]pyridine-2-carbonyl]amino]ethoxymethyl]-N-[3-(3-chloro-4-cyano-phenoxy)-2,2,4,4-tetramethyl-cyclobutyl]pyrimidine-5-carboxamide]"
0.1 to 1,< 1,"CC(=O)N1CCc2c(c(Nc3ccc(-c4cnn(C)c4)cc3F)nn2CCOCCN2CCN(c3ncc(C(=O)NC4C(C)(C)C(Oc5ccc(C#N)c(Cl)c5)C4(C)C)cn3)CC2)C1 (stereo not drawn) [Compound 1, 2-[4-[2-[2-[5-acetyl-3-[2-fluoro-4-(1-methylpyrazol-4-yl)anilino]-6,7-dihydro-4H-pyrazolo[4,3-c]pyridin-1-yl]ethoxy]ethyl]piperazin-1-yl]-N-[3-(3-chloro-4-cyano-phenoxy)-2,2,4,4-tetramethyl-cyclobutyl]pyrimidine-5-carboxamide]"
≤ 0.1,< 1,"CC(=O)N1CCc2c(c(N3CCCc4cc(-c5cnn(C)c5)c(C(F)F)cc43)nn2C2CCN(C3CCC4(CC3)CN(c3ncc(C(=O)NC5C(C)(C)C(Oc6ccc(C#N)c(Cl)c6)C5(C)C)cn3)C4)CC2)C1 (stereo not drawn) [Compound 274, 2-[7-[4-[5-acetyl-3-[7-(difluoromethyl)-6-(1-methylpyrazol-4-yl)-3,4-dihydro-2H-quinolin-1-yl]-6,7-dihydro-4H-pyrazolo[4,3-c]pyridin-1-yl]-1-piperidyl]-2-azaspiro[3.5]nonan-2-yl]-N-[3-(3-chloro-4-cyano-phenoxy)-2,2,4,4-tetramethyl-cyclobutyl]pyrimidine-5-carboxamide]"
0.1 to 1,< 1,"COc1cc(OC2C(C)(C)C(NC(=O)c3ccc(N4CC(OC5CCC(n6nc(N7CCCc8cc(-c9cnn(C)c9)c(C(F)F)cc87)c7c6CCN(C(C)=O)C7)CC5)C4)cc3)C2(C)C)ccc1C#N (stereo not drawn) [Compound 343, 4-[3-[4-[5-acetyl-3-[7-(difluoromethyl)-6-(1-methylpyrazol-4-yl)-3,4-dihydro-2H-quinolin-1-yl]-6,7-dihydro-4H-pyrazolo[4,3-c]pyridin-1-yl]cyclohexoxy]azetidin-1-yl]-N-[3-(4-cyano-3-methoxy-phenoxy)-2,2,4,4-tetramethyl-cyclobutyl]benzamide]"
≤ 0.1,< 1,"COc1cc(OC2C(C)(C)C(NC(=O)c3ccc(N4CCC(CN5CCC(n6nc(N7CCCc8cc(-c9cnn(C)c9)c(C(F)F)cc87)c7c6CCN(C(C)=O)C7)CC5)CC4)cc3)C2(C)C)ccc1C#N (stereo not drawn) [Compound 185, 4-[4-[[4-[5-acetyl-3-[7-(difluoromethyl)-6-(1-methylpyrazol-4-yl)-3,4-dihydro-2H-quinolin-1-yl]-6,7-dihydro-4H-pyrazolo[4,3-c]pyridin-1-yl]-1-piperidyl]methyl]-1-piperidyl]-N-[3-(4-cyano-3-methoxy-phenoxy)-2,2,4,4-tetramethyl-cyclobutyl]benzamide]"
0.1 to 1,< 1,"CC(=O)N1CCc2c(c(N3CCCc4cc(-c5cnn(C)c5)c(C(F)F)cc43)nn2C2CCN(C3CCC(C#Cc4ncc(C(=O)NC5C(C)(C)C(Oc6ccc(C#N)c(Cl)c6)C5(C)C)cn4)CC3)CC2)C1 (stereo not drawn) [Compound 293, 2-[2-[4-[4-[5-acetyl-3-[7-(difluoromethyl)-6-(1-methylpyrazol-4-yl)-3,4-dihydro-2H-quinolin-1-yl]-6,7-dihydro-4H-pyrazolo[4,3-c]pyridin-1-yl]-1-piperidyl]cyclohexyl]ethynyl]-N-[3-(3-chloro-4-cyano-phenoxy)-2,2,4,4-tetramethyl-cyclobutyl]pyrimidine-5-carboxamide]"
≤ 0.1,< 1,"COc1cc(OC2C(C)(C)C(NC(=O)c3ccc(N4CCC(CN5CCC(n6nc(-c7cccc8cc(-c9cnn(C)c9)ncc78)c7c6CCN(C(C)=O)C7)CC5)CC4)cc3)C2(C)C)ccc1C#N (stereo not drawn) [Compound 253, 4-[4-[[4-[5-acetyl-3-[3-(1-methylpyrazol-4-yl)-8-isoquinolyl]-6,7-dihydro-4H-pyrazolo[4,3-c]pyridin-1-yl]-1-piperidyl]methyl]-1-piperidyl]-N-[3-(4-cyano-3-methoxy-phenoxy)-2,2,4,4-tetramethyl-cyclobutyl]benzamide]"
0.1 to 1,< 1,"CC(=O)N1CCc2c(c(N3CCCc4cc(-c5cnn(C)c5)c(C(F)F)cc43)nn2C2CCN(C3CC4(CCC(Oc5ncc(C(=O)NC6C(C)(C)C(Oc7ccc(C#N)c(Cl)c7)C6(C)C)cn5)CC4)C3)CC2)C1 (stereo not drawn) [Compound 395, 2-[2-[4-[5-acetyl-3-[7-(difluoromethyl)-6-(1-methylpyrazol-4-yl)-3,4-dihydro-2H-quinolin-1-yl]-6,7-dihydro-4H-pyrazolo[4,3-c]pyridin-1-yl]-1-piperidyl]spiro[3.5]nonan-7-yl]oxy-N-[3-(3-chloro-4-cyano-phenoxy)-2,2,4,4-tetramethyl-cyclobutyl]pyrimidine-5-carboxamide]"
